Where a name gives a salt, the structure may show the parent alone.
Legend:
acetylcholinesterase = biological target: T1, acetylcholinesterase (Rattus norvegicus, UniProt P37136); experiment: biochemical; settings: rat brain homogenate as enzyme source; acetylthiocholine substrate, DTNB, absorbance at 412 nm
T1 construct: Using rat brain homogenate as a source of acetylcholinesterase; from tissue; host or cells: rat brain homogenate
T1 sequence (P37136 32-614): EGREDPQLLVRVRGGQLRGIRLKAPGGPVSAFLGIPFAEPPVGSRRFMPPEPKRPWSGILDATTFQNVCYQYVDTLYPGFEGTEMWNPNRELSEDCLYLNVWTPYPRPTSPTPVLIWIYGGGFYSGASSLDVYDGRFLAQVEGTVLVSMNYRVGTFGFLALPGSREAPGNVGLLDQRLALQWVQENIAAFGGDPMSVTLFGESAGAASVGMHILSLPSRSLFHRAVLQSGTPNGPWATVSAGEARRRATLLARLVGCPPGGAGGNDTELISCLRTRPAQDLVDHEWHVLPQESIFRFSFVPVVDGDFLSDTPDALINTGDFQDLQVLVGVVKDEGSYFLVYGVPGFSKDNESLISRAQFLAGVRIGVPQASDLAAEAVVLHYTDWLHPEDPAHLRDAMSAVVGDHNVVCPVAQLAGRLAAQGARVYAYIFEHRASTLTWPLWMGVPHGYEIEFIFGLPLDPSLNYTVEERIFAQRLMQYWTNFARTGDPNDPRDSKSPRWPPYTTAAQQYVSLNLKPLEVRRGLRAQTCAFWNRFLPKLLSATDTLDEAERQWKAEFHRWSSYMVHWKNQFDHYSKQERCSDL
Protocol: In Vitro Acetylcholinsterase Inhibitory Effect
Using rat brain homogenate as a source of acetylcholinesterase, esterase activity was assayed in accordance with the method of Ellman et al. ^1). That is, acetylthiocholin as a substrate, a test compound and DTNB (5,5′-dithiobis(2-nitrobenzoic acid)) were added to […] brain homogenate, and after incubation, the produced thiocholine was reacted with DTNB to produce a yellow product. This was measured as a change in absorbance at 412 nm to obtain acetylcholineesterase activity. The acetylcholineesterase inhibiting activity of each test compound was obtained as 50% inhibition concentration (IC50). Note that the test compounds were used after dissolving them in physiological saline. Ellman, G. L., Courtney, K. D., Andres, V. and Featherstone, R. M., (1961), Biochem. Pharmacol., 7, 88–95.

melting point [°C]	SMILES	IC50 (acetylcholinesterase) [nM]
153 to 154	COc1cc2c(cc1OC)C(=O)C(CC1CCN(Cc3ccccc3)CC1)(N=[N+]=[N-])C2.Cl (stereo not drawn)	–
–	COc1cc2c(cc1OC)C(=O)C(Cl)(CC1CCN(Cc3ccccc3)CC1)C2 (stereo not drawn) [Example 1, 1-Benzyl-4-[(5,6-dimethoxy-2-chloro-1-indanon)-2-yl]methylpiperidine hydrochloride]	2
–	CCOc1cc2c(cc1OCC)C(=O)C(Cl)(CC1CCN(Cc3ccccc3)CC1)C2 (stereo not drawn) [Example 6, hydrochloride]	2
